Measurements as given in patent US20100035867A1 (priority 2006, published 2010).

Assays:
T84 cells = assay type: cell-based, human; details: 50 μM compound
rabbit intestinal loop = assay: Liquid secretion induced by STa in a rabbit intestinal loop model; assay type: in vivo
Experimental: The test was performed by the method known in the art (Alcantara, C. S.; Jin, X. H.; Brito, G. A.; Carneiro-Filho, B. A.; Barrett, L. J.; Carey, R. M.; Guerrant, R. L., Angiotensin II subtype 1 receptor blockade inhibits Clostridium difficile toxin A-induced intestinal secretion in a rabbit model. J Infect Dis 2005, 191, (12), 2090-6). Volume of liquid in the loop was divided by the length of the loop and the normalized value was used to assess liquid accumulation in the intestinal lumen.

[1] = molecular target: T1, guanylyl cyclase type C (GC-C) (Homo sapiens, UniProt P25092); assay: STa-induced activation of GC-C in T84 cells (cyclic GMP accumulation, ELISA); assay type: cell-based; parameters: endogenous in cells; host or cells: T84 cells
T1 sequence (P25092 24-1073): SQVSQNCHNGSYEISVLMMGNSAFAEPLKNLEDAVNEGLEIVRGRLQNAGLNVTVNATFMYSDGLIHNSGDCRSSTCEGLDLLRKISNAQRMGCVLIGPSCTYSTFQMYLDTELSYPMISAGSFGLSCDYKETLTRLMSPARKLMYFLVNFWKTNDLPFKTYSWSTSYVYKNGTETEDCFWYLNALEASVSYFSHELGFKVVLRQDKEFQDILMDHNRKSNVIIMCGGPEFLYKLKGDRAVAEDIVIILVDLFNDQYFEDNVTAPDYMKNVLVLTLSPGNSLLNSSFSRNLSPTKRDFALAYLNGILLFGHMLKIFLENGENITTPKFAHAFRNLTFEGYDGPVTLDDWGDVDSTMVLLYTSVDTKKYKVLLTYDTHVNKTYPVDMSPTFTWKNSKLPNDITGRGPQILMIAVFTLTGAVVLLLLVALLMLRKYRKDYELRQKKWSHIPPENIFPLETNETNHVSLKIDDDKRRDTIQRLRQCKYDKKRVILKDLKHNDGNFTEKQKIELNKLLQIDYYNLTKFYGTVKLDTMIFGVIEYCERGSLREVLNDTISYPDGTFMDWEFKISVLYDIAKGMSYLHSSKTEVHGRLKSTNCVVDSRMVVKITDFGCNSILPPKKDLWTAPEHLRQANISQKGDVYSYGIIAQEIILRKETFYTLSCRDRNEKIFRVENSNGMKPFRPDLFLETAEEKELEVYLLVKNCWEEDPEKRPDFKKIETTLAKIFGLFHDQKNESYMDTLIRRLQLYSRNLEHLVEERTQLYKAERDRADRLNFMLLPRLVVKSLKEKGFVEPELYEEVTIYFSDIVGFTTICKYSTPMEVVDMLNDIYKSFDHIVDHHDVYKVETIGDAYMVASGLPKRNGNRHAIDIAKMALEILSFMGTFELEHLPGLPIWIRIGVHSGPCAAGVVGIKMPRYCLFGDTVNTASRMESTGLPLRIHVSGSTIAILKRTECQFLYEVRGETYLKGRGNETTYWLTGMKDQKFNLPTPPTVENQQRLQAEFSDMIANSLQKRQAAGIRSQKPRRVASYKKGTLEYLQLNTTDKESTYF

[2] = molecular target: T2, guanylyl cyclase type B (GC-B) (Rattus norvegicus, UniProt P16067); assay: CNP-induced cyclic GMP accumulation in RFL-6 fibroblast cells; details: RFL-6 cells, 1 μM CNP, 50 μM compound
T2 sequence (P16067 17-1047): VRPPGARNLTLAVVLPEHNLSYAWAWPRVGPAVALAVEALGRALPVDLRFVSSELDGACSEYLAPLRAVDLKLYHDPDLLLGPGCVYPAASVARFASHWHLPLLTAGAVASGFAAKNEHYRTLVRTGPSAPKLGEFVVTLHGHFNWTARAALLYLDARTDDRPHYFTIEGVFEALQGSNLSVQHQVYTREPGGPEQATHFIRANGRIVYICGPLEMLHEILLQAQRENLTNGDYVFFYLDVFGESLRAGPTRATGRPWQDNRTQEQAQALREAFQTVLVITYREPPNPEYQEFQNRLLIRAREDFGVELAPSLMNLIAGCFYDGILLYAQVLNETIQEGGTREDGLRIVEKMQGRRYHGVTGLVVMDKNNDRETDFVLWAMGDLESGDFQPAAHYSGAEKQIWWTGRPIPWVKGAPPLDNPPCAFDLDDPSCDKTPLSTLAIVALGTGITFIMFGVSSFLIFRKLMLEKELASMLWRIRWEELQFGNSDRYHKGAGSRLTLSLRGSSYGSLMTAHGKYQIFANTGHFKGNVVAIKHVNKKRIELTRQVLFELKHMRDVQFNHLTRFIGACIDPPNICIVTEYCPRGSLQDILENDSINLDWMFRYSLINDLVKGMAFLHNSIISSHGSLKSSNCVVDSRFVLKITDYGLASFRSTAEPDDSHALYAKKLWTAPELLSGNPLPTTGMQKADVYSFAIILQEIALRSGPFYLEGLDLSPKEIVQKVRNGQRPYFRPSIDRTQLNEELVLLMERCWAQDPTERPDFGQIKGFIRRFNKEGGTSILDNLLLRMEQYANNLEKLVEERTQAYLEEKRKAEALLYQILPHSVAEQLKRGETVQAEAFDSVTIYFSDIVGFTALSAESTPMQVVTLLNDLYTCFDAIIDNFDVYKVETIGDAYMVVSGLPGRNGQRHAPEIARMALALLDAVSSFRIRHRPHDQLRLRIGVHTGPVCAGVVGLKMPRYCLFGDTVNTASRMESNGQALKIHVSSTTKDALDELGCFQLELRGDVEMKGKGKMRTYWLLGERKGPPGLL

[3] = molecular target: T3, membrane guanylyl cyclase (guanylyl cyclase type A, GC-A) (Homo sapiens, UniProt P16066); assay: ANP-induced cyclic GMP accumulation in BE-2(C) neuroblastoma cells
T3 sequence (P16066 33-1061): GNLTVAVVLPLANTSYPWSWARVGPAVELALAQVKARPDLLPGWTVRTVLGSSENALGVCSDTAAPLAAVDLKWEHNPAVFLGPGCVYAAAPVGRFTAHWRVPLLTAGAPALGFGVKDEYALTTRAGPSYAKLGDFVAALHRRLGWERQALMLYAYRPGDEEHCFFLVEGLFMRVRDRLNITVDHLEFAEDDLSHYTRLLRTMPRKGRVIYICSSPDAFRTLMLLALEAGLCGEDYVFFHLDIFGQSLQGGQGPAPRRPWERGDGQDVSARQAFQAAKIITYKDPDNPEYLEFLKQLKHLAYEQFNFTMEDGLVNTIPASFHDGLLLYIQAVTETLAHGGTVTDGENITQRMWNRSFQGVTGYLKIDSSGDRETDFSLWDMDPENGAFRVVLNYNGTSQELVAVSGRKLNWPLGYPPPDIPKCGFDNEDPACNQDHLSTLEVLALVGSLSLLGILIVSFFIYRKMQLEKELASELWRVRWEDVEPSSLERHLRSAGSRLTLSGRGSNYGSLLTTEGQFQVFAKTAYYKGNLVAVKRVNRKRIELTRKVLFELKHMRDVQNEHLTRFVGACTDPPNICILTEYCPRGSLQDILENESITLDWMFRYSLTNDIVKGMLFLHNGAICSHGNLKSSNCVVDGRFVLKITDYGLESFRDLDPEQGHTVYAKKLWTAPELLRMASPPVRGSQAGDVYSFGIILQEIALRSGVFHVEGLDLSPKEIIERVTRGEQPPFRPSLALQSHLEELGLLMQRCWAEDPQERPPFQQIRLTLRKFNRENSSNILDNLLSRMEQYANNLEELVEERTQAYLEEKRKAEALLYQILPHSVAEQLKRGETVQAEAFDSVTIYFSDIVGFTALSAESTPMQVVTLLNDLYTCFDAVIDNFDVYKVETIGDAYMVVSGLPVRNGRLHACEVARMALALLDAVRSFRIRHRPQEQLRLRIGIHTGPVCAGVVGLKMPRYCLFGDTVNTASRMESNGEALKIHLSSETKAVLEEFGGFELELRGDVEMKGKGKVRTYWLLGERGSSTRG

[4] = molecular target: T1, guanylyl cyclase type C (GC-C); assay: Guanylin-induced activation of GC-C in T84 cells (cyclic GMP accumulation)

Cn1c2c(c(=O)n(C)c1=O)C(c1cccc(Br)c1)C1=C(N2)c2ccccc2C1=O (stereo not drawn) [compound IIb]
increase in chloride efflux induced by 8-bromo cyclic AMP or ionomycin (T84 cells): not influenced | increase in chloride efflux induced by isoproterenol, cholera toxin and forskolin (T84 cells): significantly suppressed | chloride anion efflux, increase in fluorescence of MQAE (T84 cells; 50 μM forskolin, forskolin alone 2690, baseline 477): 428 relative units in 10 min | liquid accumulation (volume per loop length) (rabbit intestinal loop; rabbit loops injected with 100 nM STa and 50 μM compound, STa+vehicle 0.62±0.05, PBS 0.18±0.03): 0.15 ± 0.06 mL/cm | inhibition of STa-stimulated liquid accumulation (rabbit intestinal loop; rabbit loops, 100 nM STa, 50 μM compound): completely | inhibition of STa-induced activation of GC-C (FIG. 2) [1]: inhibition | inhibition at 50 µM ([1]; 100 nM STa, 50 μM compound): 84.7% | level of cyclic GMP ([1]; 100 nM STa, 50 μM compound, vehicle 124±10, basal 6±2): 24±6 pmol/mg protein | IC50 ([1]; 100 nM STa, read-out: IC50, inhibition of cyclic GMP synthesis): 3.4 µM | STa concentration-dependent accumulation of cyclic GMP ([1]; increasing STa 1 nM to 5 μM, 50 μM compound): significantly suppressed | inhibition of cyclic GMP accumulation (FIG. 6) [2]: inhibition | IC50 [3]: 8.4 µM | IC50 [4]: 7.2 µM | inhibition at 50 µM ([4]; T84, read-out: inhibition of guanylin-induced cyclic GMP): 58.9% | level of cyclic GMP ([4]; T84 cells, 500 nM guanylin, 50 μM compound, vehicle 124±13): 51±6 pmol/mg protein
